The values below come from PMC5216742, “Discovery and characterization of a novel potent type II native and mutant BCR-ABL inhibitor (CHMFL-074) for Chronic Myeloid Leukemia (CML)” (Oncotarget, 2016).

Some results are limits rather than exact numbers.

For one experiment, the target named is T1, ABL1-nonphosphorylated (Homo sapiens, UniProt P00519).
T1 construct: purchased DiscoveRx (KinomeScan service)
Description: KinomeScan profiling. It counts as binding. As to conditions: 1 µM CHMFL-074; read-out: % Control.

A further experiment addresses T2, c-KIT (Homo sapiens, UniProt P10721).
T2 construct: made in house
The experiment is described as follows: Invitrogen Z'LYTE biochemical kinase assay. The method, then: The fluorescence resonance energy transfer-based Z'-LYTE kinase assay (Invitrogen, USA) was used to evaluate the IC50 value of CHMFL-074 for inhibition of ABL and KIT kinase. […] After 1 hour incubation, the reaction was developed and terminated, and the fluorescence measured with an automated plate reader (SpectraMax I3, USA). A dose-response curve was fitted using Prism 5.0 (GraphPad Software Inc., San Diego, CA).

A further experiment concerns the target PDGFRα (Homo sapiens, UniProt P16234). The experiment is described as follows: Promega ADP-Glo biochemical kinase assay. Conditions: 100 μM ATP, read-out: IC50 against PDGFRα. How it is done:
(§1) The ADP-Glo™ kinase assay (Promega, USA) was used to screen CHMFL-074 for its PDGFRα/PDGFRβ inhibition effects. […] The reaction in each tube was started immediately by adding ATP and kept going for an hour under 37°C. After the tube cooled for 5 minutes at room temperature, 5 μL solvent reactions were carried out in a 384-well plate. Then 5 μL of ADP-Glo™ reagent was added into each well to stop the reaction and consume the remaining […] within 40 minutes. […] Luminescence signal was measured with an automated plate reader (Envision, USA) and the dose-response curve was fitted using Prism 5.0 (GraphPad Software Inc., San Diego, CA).

In a further experiment the target is PDGFRβ (Homo sapiens, UniProt P09619). The experiment is described as follows: Promega ADP-Glo biochemical kinase assay. As to conditions: 100 μM ATP, read-out: IC50 against PDGFRβ. How it is done: as §1
Chain of PDGFRβ (P09619 33-1106): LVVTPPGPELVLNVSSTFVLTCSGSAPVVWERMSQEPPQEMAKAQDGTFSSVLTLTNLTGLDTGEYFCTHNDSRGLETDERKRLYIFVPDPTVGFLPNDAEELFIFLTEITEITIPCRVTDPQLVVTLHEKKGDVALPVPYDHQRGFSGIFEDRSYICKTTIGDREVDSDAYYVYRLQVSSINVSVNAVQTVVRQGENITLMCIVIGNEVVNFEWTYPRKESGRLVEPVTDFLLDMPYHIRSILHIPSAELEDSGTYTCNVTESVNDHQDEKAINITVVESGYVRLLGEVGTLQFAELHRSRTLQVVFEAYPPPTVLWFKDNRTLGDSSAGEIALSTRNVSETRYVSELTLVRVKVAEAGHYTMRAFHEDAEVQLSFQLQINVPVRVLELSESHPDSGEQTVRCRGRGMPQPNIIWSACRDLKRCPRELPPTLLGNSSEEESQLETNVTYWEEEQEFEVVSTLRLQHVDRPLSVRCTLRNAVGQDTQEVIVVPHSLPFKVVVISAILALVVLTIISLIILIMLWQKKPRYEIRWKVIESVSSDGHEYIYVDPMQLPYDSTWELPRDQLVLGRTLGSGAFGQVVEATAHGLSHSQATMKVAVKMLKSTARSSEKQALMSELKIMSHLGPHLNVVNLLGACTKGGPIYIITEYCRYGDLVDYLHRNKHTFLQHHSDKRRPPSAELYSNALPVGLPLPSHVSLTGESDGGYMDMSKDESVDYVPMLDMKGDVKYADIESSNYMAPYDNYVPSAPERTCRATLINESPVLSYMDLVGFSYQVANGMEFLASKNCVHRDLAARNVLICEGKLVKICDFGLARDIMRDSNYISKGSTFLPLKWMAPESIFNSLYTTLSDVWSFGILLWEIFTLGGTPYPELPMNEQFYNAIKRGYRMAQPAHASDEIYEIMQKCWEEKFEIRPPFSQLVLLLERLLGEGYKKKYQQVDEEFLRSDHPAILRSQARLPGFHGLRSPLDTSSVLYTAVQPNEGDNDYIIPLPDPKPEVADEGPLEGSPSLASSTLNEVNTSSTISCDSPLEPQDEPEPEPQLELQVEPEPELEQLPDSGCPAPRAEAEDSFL
The next experiment relates to BCR-DDR2-BaF3. The experiment is described as follows: Anti-proliferation, BaF3 isogenic cell lines. As to conditions: Mus musculus, BaF3, 72 h. It counts as cell-based. The text has this:
(§2) Retroviral constructs for fusion kinases were made based on the pMSCVpuro (Clontech) backbone. For TEL fusion vectors, the first 1 kb of human TEL gene with an artificial myristoylation sequence ([…]) was cloned into pMSCVpuro retroviral vector, followed by a 3xFLAG tag sequence and a stop codon; for BCR fusion vectors, the first 2.8 kb coding region of p210 amplified from K562 cell line was used in fusion constructs. Then the kinase domain coding sequences were inserted in-frame between TEL/BCR and 3xFLAG sequences. All mutagenesis were performed using the QuikChange Site-Directed Mutagenesis Kit (Stratagene) following the manufacturer's instructions. Retrovirus was packaged in HEK293T cells by transfecting kinase-fusion MSCV vectors together with two helper plasmids, virus supernatants were harvested 48 hours after transfection and filtered before infection. Then BaF3 cells were infected with harvested virus supernatants using spinoculation protocol and stable cell lines were obtained by puromycin selection for 48 hours. A second selection in the absence of IL-3 was performed to obtain IL-3 independent cell lines that solely depend on the introduced kinase activities for cell proliferation.
(§3) A density of 1 × 10^4 to 2.5 × 10^4 cells/mL cells were mixed with various concentrations of compounds then 100 μL suspension was added to each well and incubated for 72 hours. Cell viability was determined using the CellTiter-Glo assay (Promega, USA) or CCK-8 assay (Beboy, China). Both assays were performed according to the manufacturer instructions. For CellTiter-Glo assay, luminescence was determined in a multi-label reader (Envision, PerkinElmer, USA). […] Data were normalized to control group (DMSO). GI50 were calculated using Prism 6.0 (GraphPad Software, San Diego, CA).

Another experiment has as its system BaF3. Description: Anti-proliferation, BaF3 isogenic cell lines. It counts as cell-based. As to conditions: Mus musculus, BaF3, 72 h.
Text: as §2, §3

In a further experiment the test system is P210-E255K-BaF3. Description: Anti-proliferation, BaF3 isogenic cell lines. It is filed as cell-based. Conditions: Mus musculus, BaF3, 72 h.
Text: as §2, §3

For another experiment, the system named is P210-F317I-BaF3. The experiment is described as follows: Anti-proliferation, BaF3 isogenic cell lines. It is filed as cell-based. Conditions: Mus musculus, BaF3, 72 h.
Text: as §2, §3

The test system of another experiment is P210-F317L-BaF3. Description: Anti-proliferation, BaF3 isogenic cell lines. It is filed as cell-based. Conditions: Mus musculus, BaF3, 72 h.
Text: as §2, §3

Another experiment concerns P210-H369P-BaF3. The experiment is described as follows: Anti-proliferation, BaF3 isogenic cell lines. It is filed as cell-based. As to conditions: Mus musculus, BaF3, 72 h.
Text: as §2, §3

The test system of the next experiment is P210-M351T-BaF3. The experiment is described as follows: Anti-proliferation, BaF3 isogenic cell lines. Conditions: Mus musculus, BaF3, 72 h. It is filed as cell-based.
Text: as §2, §3

For a further experiment, the system named is P210-Q252H-BaF3. Description: Anti-proliferation, BaF3 isogenic cell lines. It is filed as cell-based. Conditions: Mus musculus, BaF3, 72 h.
Text: as §2, §3

Another experiment has as its system P210-T315I-BaF3. Description: Anti-proliferation, BaF3 isogenic cell lines. It is filed as cell-based. Conditions: Mus musculus; P210-T315I-BaF3, 72 hours.
Text: as §2, §3

In the next experiment the test system is P210-Y253F-BaF3. The experiment is described as follows: Anti-proliferation, BaF3 isogenic cell lines. It is filed as cell-based. As to conditions: Mus musculus, BaF3, 72 h.
Text: as §2, §3

The test system of the next experiment is TEL-DDR1-BaF3. Description: Anti-proliferation, BaF3 isogenic cell lines. It counts as cell-based. As to conditions: Mus musculus; TEL-DDR1-BaF3, 72 hours.
Text: as §2, §3

For a further experiment, the system named is Tel-BLK-BaF3. Description: Anti-proliferation, BaF3 isogenic cell lines. It is filed as cell-based. As to conditions: Mus musculus, BaF3, 72 h.
Text: as §2, §3

In another experiment the test system is Tel-HCK-BaF3. Description: Anti-proliferation, BaF3 isogenic cell lines. It is filed as cell-based. As to conditions: Mus musculus, BaF3, 72 h.
Text: as §2, §3

Another experiment relates to Tel-LCK-BaF3. The experiment is described as follows: Anti-proliferation, BaF3 isogenic cell lines. It counts as cell-based. As to conditions: Mus musculus; Tel-LCK-BaF3, 72 hours.
Text: as §2, §3

A further experiment deals with Tel-PDGFRα-BaF3. Description: Anti-proliferation, BaF3 isogenic cell lines. It counts as cell-based. Conditions: Mus musculus, BaF3, 72 h.
Text: as §2, §3

The subject of another experiment is Tel-PDGFRβ-BaF3. The experiment is described as follows: Anti-proliferation, BaF3 isogenic cell lines. It is filed as cell-based. Conditions: Mus musculus, BaF3, 72 h.
Text: as §2, §3

The next experiment has as its system Tel-RET-BaF3. Description: Anti-proliferation, BaF3 isogenic cell lines. It is filed as cell-based. Conditions: Mus musculus, BaF3, 72 h.
Text: as §2, §3

The next experiment concerns CHO. Description: Anti-proliferation, intact cancer cell lines. It is filed as cell-based, Chinese hamster. Conditions: Cricetulus griseus, 72 h. The method, then:
The K562 (CML), KU812 (CML), MEG-01 (CML), MV4-11 (AML), MOLM14 (AML), U937 (AML), REC-1 (Human B-cell lymphoma cell), HL-60 (Human promyelocytic leukemia cells), MEC-1(CLL), CHL (Hamster lung cell), CHO (Hamster ovary cell) cell lines were obtained from American Type Culture Collection (Manassas, VA). All the cells were grown in a humidified incubator (Thermo, USA) at 37°C under 5% CO2. CHO cells were maintained in DMEM supplemented with 10% FBS, 1% penicillin/strepto-mycin. MV4-11 (AML) were grown in IMDM supplemented with 10% FBS, 1% penicillin/streptomycin. […] For suspension cells, cells were collected by spinning down at 800 rpm/min for 5 min before use.
as §3

T2 sequence (P10721 26-976): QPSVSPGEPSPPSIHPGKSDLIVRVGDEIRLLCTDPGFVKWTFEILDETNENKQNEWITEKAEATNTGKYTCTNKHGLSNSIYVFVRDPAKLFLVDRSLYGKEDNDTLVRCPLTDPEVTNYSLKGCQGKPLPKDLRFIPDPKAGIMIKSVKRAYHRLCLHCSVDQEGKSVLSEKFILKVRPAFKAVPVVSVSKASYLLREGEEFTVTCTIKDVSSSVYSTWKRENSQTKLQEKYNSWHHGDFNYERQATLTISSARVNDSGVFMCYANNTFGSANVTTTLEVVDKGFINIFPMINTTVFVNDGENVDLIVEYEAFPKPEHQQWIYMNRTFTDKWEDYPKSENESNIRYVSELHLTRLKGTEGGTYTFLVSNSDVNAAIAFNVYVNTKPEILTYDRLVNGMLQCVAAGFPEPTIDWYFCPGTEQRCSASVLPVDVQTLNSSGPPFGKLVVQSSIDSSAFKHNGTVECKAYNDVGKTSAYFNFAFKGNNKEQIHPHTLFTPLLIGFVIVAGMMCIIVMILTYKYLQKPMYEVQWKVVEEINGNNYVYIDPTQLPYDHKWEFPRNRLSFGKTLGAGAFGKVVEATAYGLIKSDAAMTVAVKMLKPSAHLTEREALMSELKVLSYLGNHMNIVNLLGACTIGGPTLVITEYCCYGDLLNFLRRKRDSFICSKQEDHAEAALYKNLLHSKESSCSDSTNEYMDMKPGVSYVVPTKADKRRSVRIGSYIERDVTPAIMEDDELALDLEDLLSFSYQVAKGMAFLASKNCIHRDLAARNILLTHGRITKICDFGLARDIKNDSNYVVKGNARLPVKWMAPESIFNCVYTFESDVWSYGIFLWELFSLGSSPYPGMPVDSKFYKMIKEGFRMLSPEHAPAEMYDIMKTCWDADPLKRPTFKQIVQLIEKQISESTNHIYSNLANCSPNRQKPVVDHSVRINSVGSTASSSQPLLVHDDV
T1 sequence (P00519 whole entry): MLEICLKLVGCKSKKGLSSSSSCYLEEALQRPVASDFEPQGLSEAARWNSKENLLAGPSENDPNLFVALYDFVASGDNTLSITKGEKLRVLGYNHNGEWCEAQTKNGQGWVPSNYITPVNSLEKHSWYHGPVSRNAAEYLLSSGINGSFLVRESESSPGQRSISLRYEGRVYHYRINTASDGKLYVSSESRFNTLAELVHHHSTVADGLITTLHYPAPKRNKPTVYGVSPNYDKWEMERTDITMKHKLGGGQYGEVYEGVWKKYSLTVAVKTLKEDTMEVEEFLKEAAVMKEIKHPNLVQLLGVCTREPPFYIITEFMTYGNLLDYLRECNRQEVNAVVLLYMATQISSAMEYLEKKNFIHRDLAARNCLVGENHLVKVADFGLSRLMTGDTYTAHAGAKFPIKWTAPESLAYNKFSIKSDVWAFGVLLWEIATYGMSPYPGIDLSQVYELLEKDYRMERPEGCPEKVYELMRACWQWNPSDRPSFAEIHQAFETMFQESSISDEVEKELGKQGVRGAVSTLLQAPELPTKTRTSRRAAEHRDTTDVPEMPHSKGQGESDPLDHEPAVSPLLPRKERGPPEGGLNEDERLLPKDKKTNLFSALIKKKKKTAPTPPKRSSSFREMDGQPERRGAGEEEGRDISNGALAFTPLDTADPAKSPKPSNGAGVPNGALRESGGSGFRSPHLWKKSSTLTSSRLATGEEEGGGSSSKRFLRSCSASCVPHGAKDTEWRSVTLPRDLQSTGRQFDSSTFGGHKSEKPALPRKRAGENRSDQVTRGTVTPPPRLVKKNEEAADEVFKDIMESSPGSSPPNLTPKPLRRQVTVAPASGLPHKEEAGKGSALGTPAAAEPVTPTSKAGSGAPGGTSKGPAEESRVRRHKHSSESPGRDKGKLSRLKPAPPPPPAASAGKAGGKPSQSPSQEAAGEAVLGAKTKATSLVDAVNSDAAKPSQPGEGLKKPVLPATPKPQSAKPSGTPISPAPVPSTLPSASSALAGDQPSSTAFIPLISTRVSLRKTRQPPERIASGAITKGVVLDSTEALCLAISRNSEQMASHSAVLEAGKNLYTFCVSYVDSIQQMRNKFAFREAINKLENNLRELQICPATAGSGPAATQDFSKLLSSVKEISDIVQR
Chain of PDGFRα (P16234 24-1089): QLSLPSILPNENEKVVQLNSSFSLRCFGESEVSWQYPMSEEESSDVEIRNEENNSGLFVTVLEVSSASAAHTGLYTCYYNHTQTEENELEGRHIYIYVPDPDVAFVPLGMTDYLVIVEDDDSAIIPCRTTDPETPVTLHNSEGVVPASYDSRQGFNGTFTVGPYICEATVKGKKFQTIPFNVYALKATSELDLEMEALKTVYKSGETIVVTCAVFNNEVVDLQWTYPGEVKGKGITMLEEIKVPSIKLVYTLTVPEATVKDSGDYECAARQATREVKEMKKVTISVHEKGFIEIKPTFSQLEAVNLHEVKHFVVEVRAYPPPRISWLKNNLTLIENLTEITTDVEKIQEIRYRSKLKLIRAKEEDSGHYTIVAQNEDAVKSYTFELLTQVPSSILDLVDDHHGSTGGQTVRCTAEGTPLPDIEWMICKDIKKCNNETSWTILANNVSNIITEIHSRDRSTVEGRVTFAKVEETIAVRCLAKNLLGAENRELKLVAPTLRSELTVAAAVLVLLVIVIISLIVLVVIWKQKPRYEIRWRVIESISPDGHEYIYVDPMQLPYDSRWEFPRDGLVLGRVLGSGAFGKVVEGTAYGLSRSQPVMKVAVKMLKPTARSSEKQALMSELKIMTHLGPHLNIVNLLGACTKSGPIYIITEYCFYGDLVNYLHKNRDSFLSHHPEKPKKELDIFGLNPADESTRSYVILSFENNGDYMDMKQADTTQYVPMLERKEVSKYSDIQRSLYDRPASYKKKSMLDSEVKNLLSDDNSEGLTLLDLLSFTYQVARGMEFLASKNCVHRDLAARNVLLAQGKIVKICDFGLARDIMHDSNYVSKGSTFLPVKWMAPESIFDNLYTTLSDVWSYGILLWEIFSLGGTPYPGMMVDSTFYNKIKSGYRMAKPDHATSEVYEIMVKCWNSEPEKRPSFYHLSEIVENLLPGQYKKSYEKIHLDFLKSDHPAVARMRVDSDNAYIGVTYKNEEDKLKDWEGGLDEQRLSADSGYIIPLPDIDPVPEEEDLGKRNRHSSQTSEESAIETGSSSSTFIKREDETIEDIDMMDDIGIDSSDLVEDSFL

Take `Cc1ccc(NC(=O)c2ccc(CN3CCN(C)CC3)c(C(F)(F)F)c2)cc1OC1CCN(C(=O)c2cccnc2)CC1` [CHMFL-074]: the remaining binding at 1 µM at ABL1-nonphosphorylated stood at 0.25%. The “fold less active against c-KIT than ABL1 kinase” value on c-KIT was “about 12 fold”. In addition, the IC50 – broadly, the concentration that inhibits the measured activity by half – is 289 nM on c-KIT (ATP 300 μM, read-out: IC50 against c-KIT); 71 nM at PDGFRα; 88 nM on PDGFRβ. The GI50 (as a rule, the concentration at which growth is held to half of that of the control) in the experiment on BCR-DDR2-BaF3 was 2670 nM; in the experiment with BaF3, > 10000 nM; with P210-E255K-BaF3, 774 nM; with P210-F317I-BaF3 it was 355 nM; in the experiment on P210-F317L-BaF3, 218 nM; in the experiment on P210-H369P-BaF3 it was 1040 nM. Also, the GI50 was 349 nM in the experiment with P210-M351T-BaF3; 118 nM in the experiment with P210-Q252H-BaF3; > 10000 nM in the experiment with P210-T315I-BaF3; 338 nM with P210-Y253F-BaF3; 3520 nM with TEL-DDR1-BaF3; 2860 nM in the experiment with Tel-BLK-BaF3. Besides, the GI50 was > 10000 nM in the experiment with Tel-HCK-BaF3; 2020 nM in the experiment on Tel-LCK-BaF3; 95 nM with Tel-PDGFRα-BaF3; 52 nM in the experiment with Tel-PDGFRβ-BaF3; 630 nM in the experiment with Tel-RET-BaF3; > 10000 nM with CHO.
